# Assays:
# [1] = test system: AKT phosphorylation in bovine chondrocytes; assay: Stimulation of AKT phosphorylation in primary bovine chondrocytes (pAKT ELISA); type: cell-based; conditions: 10 min stimulation, doses in M (Table 4), 6x-Histidine-tagged fusion proteins
# Method: (§1) Fusion proteins comprising IGF-1 and a cartilage matrix binding domain were prepared as described above. Six fusion proteins were prepared: GF-Fus1 (6x-Histidine-tagged), GF-Fus2(6x-Histidine-tagged), GF-Fus3 (6x-Histidine-tagged), GF-Fus4 (6x-Histidine-tagged), GF-Fus5 (6x-Histidine-tagged), and GF-Fus6 (6x-Histidine-tagged). In order to ensure that the growth factor portion of the fusion protein was active in the fusion proteins, each construct was tested for its ability to stimulate AKT phosphorylation. Wild-type IGF-1 (wtIGF) was included as a control. Bovine chondrocytes were stimulated with a range of doses of each fusion protein, and pAKT levels were measured by ELISA.
# Bovine chondrocytes are isolated from the femoral chondyles of 2-4 week old bovine calves. Knee joints are mounted by removing all tissue surrounding the femur, removing the femoral head with a bone saw or hack saw, and clamping in a tissue vice. Joints are aseptically opened, removing the patella, tibia and fibula. Using a scalpel, cartilage is sliced off the femoral chondyles and placed in sterile PBS (pH=7.4) containing penicillin-streptomycin (1×, Gibco 15140-122). PBS is subsequently removed and pronase solution (50 mL per 5 g of tissue), consisting of high glucose DMEM (Life Technologies Cat#11965-092), fetal bovine serum (10% v/v, Life Technologies Cat#16140071), HEPES (100 mM, Gibco 15630-080), non-essential amino acids (1×, Sigma M7145), penicillin-streptomycin (1×, Gibco 15140-122), proline (400 μM, Sigma P5607-256), Protease Type XIV (2 mg/mL, Sigma Cat# P5147), is added for 1 hour with stirring. After rinsing twice with sterile PBS (pH=7.4), collagenase solution (50 mL per 5 g of tissue), consisting of high glucose DMEM (Life Technologies Cat#11965-092), fetal bovine serum (10% v/v, Life Technologies Cat#16140071), HEPES (100 mM, Gibco 15630-080), NEAA(1×, Sigma M7145), Penicillin-Streptomycin (1×, Gibco 15140-122), 0.25 mg/mL Collagenase P (Roche Cat#11 249 002 001), is added for 18 hours with stirring. Cell are strained, washed, and resuspended in chondrocyte culture medium (low glucose DMEM (1× Gibco 11885-084), Penicillin-Streptomycin (1×, Gibco 15140-122), non-essential amino acids (1×, Sigma M7145), and HEPES (100 mM, Gibco 15630-080)) with fetal bovine serum (10% v/v, Life Technologies Cat#16140071).
# For ligand stimulation, chondrocytes were seeded at 200,000 cells/well into 96-well tissue culture plates with 100 μL of chondrocyte culture medium with fetal bovine serum (10% v/v, Life Technologies Cat#16140071). […]
# [2] = test system: bovine cartilage explants; assay: In vitro joint disease model (IL-1), explanted bovine cartilage: sGAG loss; type: cell-based; conditions: 13.3 nM supplied in every medium change, IL-1, relative to Disease control
# From the text: (§2) Bovine cartilage explants (3 mm diameter, 1.2 mm thick) are harvested from the femoral patellar groove of 2-4 week old bovine calves. Knee joints are mounted by removing all tissue surrounding the femur, removing the femoral head with a bone saw or hack saw, and clamping in a tissue vice. Joints are aseptically opened, removing the patella, tibia and fibula. Using a 3 mm diameter disposable biopsy punch, approximately 80×3 mm diameter full thickness cartilage cores are punched from the femoral-patellar groove. A sterile knife is used to slice the cores at the cartilage-bone interface. Cores are then inserted into 3 mm diameter holes in a 1.2 mm thick sterile stainless steel plate and sliced flush with the plate using sterile razor blades to remove the excess core length, resulting in 3 mm diameter, 1.2 mm thick cartilage explants with the superficial zone cartilage intact.
# (§3) Explants are cultured in 96-well plates in 300 μL of medium consisting of low glucose DMEM (1× Gibco 11885-084), Penicillin-Streptomycin (1×, Gibco 15140-122), ascorbic acid (20 μg/mL, Sigma A4403), proline (400 μM, Sigma P5607-256), non-essential amino acids (1×, Sigma M7145), and HEPES (100 mM, Gibco 15630-080). Explants from three animals (n=2-3 per animal) are used in each treatment condition for a total explant number of 8-9 per condition. Medium is changed every 2 days. On days 6 and 10, the medium is supplemented with 5 μCi/mL of ^35S-sodium sulfate (Perkin Elmer NEX041H001MC, 1 mCi).
# (§4) Timepoints are taken at day 8 and 12: explant tissue is washed four times for 30 min each (2 hr total) in 1 mM unlabeled sodium sulfate in PBS. Each explant is weighed wet and frozen at −20° C. until digestion. Tissue digestion was performed with Proteinase K (Roche cat #3115879001) and each explant is digested in 1 mL 100 μg/mL Proteinase K in 50 mM Tris-HCL, 1 mM Calcium Chloride pH=8.0 buffer at 60° C. overnight. Measurement of sGAG content and DNA content is performed using standard assay methods such as those described in Hoemann, 2004, Methods in Molecular Medicine: Cartilage and Osteoarthritis. Totowa, N.J.: Humana Press Inc.; p. 127-52. ^35S-sulfate content of the digested cartilage explants was quantified by mixing 20 μL of digest with 250 μL of scintillation fluid (Perkin Elmer cat #1200-439) and counting with a WALLAC 1450 MICROBETA TRILUX scintillation counter.
# (§5) Treatments were given at the following concentrations: wtIGF-1 13.3 nM=100 ng/mL (IGF-1 R&D systems 291-G1); GF-Fus1 (6x-Histidine tagged) 13.3 nM=135 ng/mL; GF-Fus2 (6x-Histidine tagged) 13.3 nM=140 ng/mL; and GF-Fus3 (6x-Histidine tagged)13.3 nM=181 ng/mL. All treatments included IL-1 and were given for either 4 days or the entire culture duration. The outcomes measured were ^35S-sulfate incorporation, DNA content, and sGAG content of plug at endpoint, and sGAG released to media for all media changes. Controls were either no treatment (Healthy) or IL-1 alone at 1 ng/mL (Disease).
# (§6) FIG. 4 depicts a graph of cartilage matrix loss as measured by the cumulative percentage of total sGAG lost to the culture medium against time (days). Percentage loss is calculated by dividing the cumulative sGAG in the culture medium by the total sGAG present in the medium over the culture period plus the sGAG remaining in the explant at the end of culture. Cartilage matrix loss was reduced by each IGF fusion protein relative to the disease control at a level similar to wild-type IGF. New cartilage matrix synthesis (i.e. sulfated proteoglycan synthesis is measured by ^35S-Sulfate incorporation) during the final 48 hrs of cultures terminated at day 8 and day 12 is shown in FIGS. 5A and 5B, respectively. Cartilage matrix synthesis was increased compared to disease control by all fusion proteins (GF-Fus1, GF-Fus2, and GF-Fus3) and wild-type IGF when the fusion proteins were supplied in every medium change for the entire culture duration of 8 and 12 days (black bars). […]
# [3] = test system: bovine cartilage explants; assay: In vitro joint disease model (IL-1), explanted bovine cartilage: ^35S-sulfate incorporation; type: cell-based; conditions: supplied in every medium change for 8 or 12 days, IL-1, final 48 hrs, versus Disease control
# From the text: as §2, §3, §4, §5, §6
# [4] = ELISA binding of fusion proteins to heparan sulfate coated plates; conditions: 6x-Histidine-tagged proteins, FIG. 1A
# Method: (§7) The specificity of binding of fusion proteins to the polysaccharides heparan sulfate and chondroitin sulfate may be determined by measuring the ability of the proteins to bind polysaccharides coated on an ELISA plate. Heparin Binding Plates (BD Biosciences) are coated with 50 μl of 2-10 μg/mL concentration of heparan sulfate or chondroitin sulfate (Sigma-Aldrich®) and incubated overnight at room temperature. Plates are washed with PBS and blocked with 250 μl of 0.2% gelatin in PBS for 1 hour at 37 C. Plates are then washed with PBS and tapped dry. 50 μl of protein in a dilution series is added to the wells and incubated for 2 hours at 37 C. The protein dilution series starts from 100 nM and includes ten additional three-fold dilutions in PBS, 0.2% gelatin and one blank (PBS, 0.2% gelatin only). After the plates are washed in PBS, 50 μl of anti-human IGF-1 (Abcam) at 1:250 in PBST is added and the plates are incubated for 1 hour rotating at room temperature. Plates are washed with PBST and 100 μl of 1:1000 anti-Rabbit-HRP (Cell Signaling Technology®) in PBST is added to each well and the plate is incubated for 1 hour at room temperature. […] The absorbance is measured at 450 nm and the resulting data is analyzed using GraphPad Prism® (GraphPad Software, San Diego, Calif.). […]
# [5] = ELISA binding of fusion proteins to chondroitin sulfate coated plates; conditions: 6x-Histidine-tagged proteins, FIG. 1B
# Method: as §7
# BXPC-3 cells = assay: Stimulation of AKT phosphorylation in BXPC-3 cells (pAKT ELISA); type: cell-based; conditions: 10 min stimulation, doses in M (Table 4), 6x-Histidine-tagged fusion proteins
# Method: as §1
# For ligand stimulation, chondrocytes were seeded at 200,000 cells/well into 96-well tissue culture plates with 100 μL of chondrocyte culture medium with fetal bovine serum (10% v/v, Life Technologies Cat#16140071). Alternatively, BXPC-3 cells, a pancreatic adenocarcinoma cell line (ATCC® CRL-1687™), were seeded at 30,000 cells/well into 96-well tissue culture plates with 100 μL of BXPC-3 medium (RPMI-1640, e.g., ATCC® 30-2001™), with L-glutamine (2 mM), Penicillin-Streptomycin (1×, Gibco® 15140-122), Fetal Bovine Serum (10% v/v, Life Technologies Cat#16140071)). After 24 hrs, both chondrocytes and BXPC-3 cells were rinsed with 100 μL of sterile PBS (pH=7.4) per well and 100 μl of chondrocyte or BXPC-3 culture medium (without fetal bovine serum) was added to the corresponding cell type. After an additional 24 hrs, cells were stimulated with the doses of fusion proteins set forth in Table 4 by adding 25 μL of fusion protein at a concentration 5 times greater than the concentration listed in Table 4 to the 100 μL of medium already in the wells. After 10 min of stimulation, fusion protein was removed and wells were rinsed in ice cold PBS (pH=7.4). 50 μL/well of cell extraction buffer (Invitrogen cat# FNN0011) was added and incubated with shaking at 4° C. for 30 minutes. Lysates were then frozen at −80° C.
# Corning high binding 384 well black ELISA plates (cat#3577) are coated with 30 μL of capture antibody at 4 μg/mL (anti-AKT1 total capture antibody, Upstate, Cat#05-591MG) in PBS (pH=7.4) for 16 hours at room temperature, washed and blocked with […] 2% bovine serum albumin (Sigma Cat# A3294) in PBS (pH=7.4) for 1 hour at room temperature. 20 μL of thawed lysates or recombinant pAKT standards (ten 2-fold serial dilutions of 400 ng recombinant human AKT, active (Upstate, Cat#14-276) in PBS (pH=7.4) containing 50% v/v Cell extraction buffer (Invitrogen Cat#FNN0011), 1% bovine serum albumin (Sigma Cat# A3294), 0.05% Tween20) are applied to the coated plate and incubated for 2 hours at room temperature. After washing 3 times with 100 μL/well of 0.05% Tween-20/PBS (pH=7.4) bound phospho-AKT is detected using Phospho-AKT (Ser473)(587F11)-biotinylated (Cell Signaling, Cat#5102), streptavidin-HRP (R&D Systems Cat# DY998, Part #890803), SuperSignal ELISA PicoChemiluminescent Substrate (Thermo Scientific Cat#37069), using a luminometer to detect light emissions at 425 nm.
binding to heparan sulfate [4],binding to chondroitin sulfate [5],Substance,logEC50 Mean [1],cartilage matrix loss (% sGAG loss) [2],cartilage matrix synthesis (^35S-sulfate incorporation) [3],logEC50 Mean (BXPC-3 cells)
–,–,GF-Fus2: N-terminal Prelp HB domain fused to wild-type IGF,−8.830,reduced,increased,–
did not bind,did not bind,GF-Fus4: IGF-1(LR3) fused to Collagen IX HB domain,–,–,–,−9.133

# Reference: patent publication US20170327556A1, “CARTILAGE-BINDING FUSION PROTEINS” (Merrimack Pharmaceuticals, Inc., priority 2013, published 2017)
